From patent US20250057793A1, “BENZOIC ACID SALTS FOR TREATMENT OF NERVOUS SYSTEM INJURIES AND DISORDERS” (The United States Government as represented by the …, priority 2021, published 2025)
“Also recorded” adds a separate entry of the source.

Legend:
[1] = tested on: CCI-induced TBI mice; test: Lesion volume in CCI-induced mice (Cavalieri stereology); type: in vivo, mouse; settings: for total lesion volume / size of lesion cavity: 21 days post-injury
Procedure: FIG. 5C is a plot showing lesion size in the experimental conditions. Lesion size was quantitatively measured in control mice, untreated CCI injured mice, NaB treated CCI-mice and NaFO-treated CCI-mice at 21 days post-injury. Statistical analyses were performed with Student's t-test in the injured side of the brain [^ap<0.001 (5.623×10^−7) vs control; ^bp<0.001 (=0.001) vs CCI injury].
FIGS. 10A-10C. Decrease in lesion volume in TBI mice by GTB treatment. […] FIG. 10A. […] FIG. 10C. Lesion volume was quantified in all groups of mice. Statistical analyses were performed with two way ANOVA and expressed as mean±SD to compare the lesion volume between unlesioned and lesioned side of the brain.
The estimation of lesion volume was performed based on the Cavalieri method of unbiased stereology using the StereoInvestigator software (MicroBright Biosciences, USA). Both the ipsilateral and contralateral hemisphere of brain volumes were determined using the Cavalieri estimator with a 1 mm grid spacing 1 mm. Every fourth section was analyzed beginning from a random start point. Lesion volume was estimated by subtracting the volume of the ipsilateral hemisphere from that of the contralateral hemi-sphere. Then the volume of lesion cavity estimated in brain section of untreated mice was compared with lesion volume of brain sections of drug treated mice.

[2] = tested on: mice with TBI induced by CCI; test: Open field behavior in TBI mice; type: in vivo, mouse; settings: 50 mg/kg/day oral; for overall movements / all open-field parameters (heat map, distance, velocity, center frequency, rearing): 21 day post-injury
Procedure: The performance of animals in open field test was analyzed as described in earlier studies. Briefly, each animal was allowed to move freely to explore an open field arena designed with a square shaped wooden floor measuring 40×40 cm, with walls 30 cm high for 5 min. A […] (Basler Gen I Cam—Basler acA 1300-60) connected to a Noldus computer system was fixed in top facing-down on the open field arena. Each mouse was placed individually on center of the arena and the performance was monitored by the live video tracking system. The central area was arbitrarily defined as a square of 20×20 cm ([…]).

[3] = tested on: CCI-injured mice; test: Rotarod test in CCI-injured mice; type: in vivo, mouse; settings: 50 mg/kg/day oral
Procedure: The forehindlimb motor coordination and balance in animals was observed using the rotarod test as described in earlier studies. Briefly, each mouse was placed on the confined section of the rod and trial was initiated with a smooth increase in speed from 4 rpm to 40 rpm for 5 mins. […] The latency to fall was measured in seconds and used for the analysis. Following the CCI injury, each mouse performed the task three trials during the testing sessions and the average score on these three trials was used as the individual rotarod score. Each trial on the rod was terminated when the mice fell off the rod or held on to the rod by hanging and completed improper revolutions.

[4] = tested on: CCI-injured mice; test: Tail suspension test (depression-like behavior) in CCI-injured mice; type: in vivo, mouse; settings: 50 mg/kg/day oral
Procedure: Mice were subjected to the tail suspension test using a methodology as described in earlier studies. The mice were gently hung upside down by the tail using the non-toxic adhesive tape 50 cm above the floor for 6 mins. Immobility time was defined as the period of time during which the mice only hung passively, without any active movements. An increased immobility time is defined as a depression-like behavior.

[5] = tested on: CCI-injured mice; test: Beam runway / beam walking in CCI-injured mice; type: in vivo, mouse; settings: for gait movement on beam runway (steps, time taken, foot slips): 7 day post-injury
Excerpt: The beam runway was made of smooth wooden material and measured 65 cm length×0.7 cm breadth×4 cm height. A black box with an opening was fixed at one end and an aversive stimulus (bright lamp) at the other end of beam. This test was used to evaluate the complex coordination and balance of mice while traversing the beam and we performed the procedure as described in earlier studies. The mouse was placed on the beam near the light source and the light was turned ‘on’. This makes the animal move into the box to avoid the aversive stimulus, which was then turned off. Six repetitions were performed with a 2 mins resting period inside the box. The parameters measured were the time taken (sec) to reach the box and the number of steps with contralateral limb drag/slips. An error was considered whenever the paw slipping on the beam and the number of slips were counted. The beam walk analysis was performed by an observer blinded to the treatment at 7th and 21st postoperative day.

[6] = tested on: CCI-injured mice; test: Grid runway in CCI-injured mice; type: in vivo, mouse; settings: for gait movement on grid runway (steps, time taken, foot misplacement): 7 day post-injury
Excerpt: The grid runway (65 cm length×8 cm breadth×1 cm intervals) made of parallel grid bars with interbar intervals of 1 cm apart and grid were kept above the surface on a table during the testing session. The soft padding was positioned under the grid run-way in the event for protection to avoid serious injury, if the animal falls from the grid. Each mouse was allowed to walk freely on grid and the time taken and number of steps to cross the runway was noted. Each successful foot placement on grid was recorded as a step. However, an error was considered whenever the paw slips through the grid or the paw misses a bar and extends downwards through the plane of bars. The locomotor behavior of animal on grid was evaluated by an observer blinded to the treatment on 7th and 21st day after CCI injury.

[7] = tested on: TBI mice; test: Barnes maze test in TBI mice; type: in vivo, mouse; settings: 50 mg/kg/day oral; for Barnes maze latency (time taken to find the target hole) / Barnes maze number of errors: 21 days post-injury
Procedure: The Barnes maze test was performed as described in our earlier studies. Briefly, the mice were initially trained for 2 consecutive days followed by examination on day 3. After each training session, maze and escape tunnel were thoroughly cleaned with a mild detergent to avoid instinctive odor avoidance due to mouse's odor from the familiar object. On day 3, a video camera (Basler Gen I Cam—Basler acA 1300-60) connected to a Noldus computer system was placed above the maze and was illuminated with high voltage light that generated enough light and heat to motivate animals to enter into the escape tunnel. The performance was monitored by the video tracking system (Noldus System). Cognitive behavior parameters were examined by measuring latency (duration before all four paws were on the floor of the escape box) and errors (incorrect response before all four paws were on the floor of the escape box).

[8] = tested on: TBI mice; test: T-maze in TBI mice; type: in vivo, mouse; settings: 21 days post-injury, 50 mg/kg/day oral
Procedure: Mice were initially habituated in the T-maze for 2 days under food-deprived conditions. Food reward was provided for at least 5 times over a 10 mins period of training. T-maze was cleaned with mild detergent solution between each testing session, so as to minimize the animal's ability to use any olfactory clues. The food-reward side was always associated with a visual cue. Each time the animal consumed food-reward and it was considered as a positive turn.

[9] = tested on: CCI-induced TBI mice; test: Glial activation and iNOS in brain of CCI-induced TBI mice (immunofluorescence, Western blot); settings: for activation of astrocytes / astroglial inflammation in vivo / microglial activation in vivo / iNOS / iNOS-positive cells / GFAP-positive astrocytes / Iba1-positive microglia: cortex and hippocampus; for activation of astrocytes / astroglial inflammation in vivo / microglial activation in vivo: 7 days of treatment, 50 mg/kg/day oral; for iNOS / iNOS-positive cells / level of iNOS protein / expression of iNOS (Western blot) / protein level of GFAP (Western blot) / protein level of Iba1 (Western blot): day 7, 50 mg/kg/day oral; for GFAP-positive astrocytes / Iba1-positive microglia: day 7 post-injury, 50 mg/kg/day oral from 24 h after CCI; for level of iNOS protein / expression of iNOS (Western blot) / protein level of GFAP (Western blot) / protein level of Iba1 (Western blot): hippocampus
[10] = 21st day of CCI injury, 50 mg/kg/day oral gavage
[11] = 7 day post-injury, 50 mg/kg/day
[12] = 50 mg/kg/day oral, 50 mg/kg/day
[13] = 21 days post-injury, 50 mg/kg/day oral

Row | SMILES | overall movements / all open-field parameters (heat map, distance, velocity, center frequency, rearing) [2] | immobility time in tail suspension test ([4]; 21 days post-injury) | Barnes maze latency (time taken to find the target hole) [7] | Barnes maze number of errors [7] | T-maze number of negative turns [8] | T-maze number of positive turns [8] | activation of astrocytes / astroglial inflammation in vivo [9] | microglial activation in vivo [9] | iNOS / iNOS-positive cells [9] | GFAP-positive astrocytes [9] | Iba1-positive microglia [9] | level of iNOS protein / expression of iNOS (Western blot) [9] | protein level of GFAP (Western blot) [9] | protein level of Iba1 (Western blot) [9] | also measured
1 | O=C(OCC(COC(=O)c1ccccc1)OC(=O)c1ccccc1)c1ccccc1 [GTB, Glyceryl Tribenzoate] | no significant change | significantly less immobility time | less time | less errors | lower number of negative turns | higher number of positive turns | inhibits | decreases | decreased | decrease | reduced | decreased | decrease | reduced | total lesion volume / size of lesion cavity ([1]; H&E-stained sections, 50 mg/kg/day oral gavage): decrease; general locomotor activity / open-field behavior ([2]; 7 day post-injury): significant increase; latency to fall on rotarod ([3]; 7 day post-injury): increase in latency; immobility time in tail suspension test ([4]; 7 days post-injury): significantly less immobility time; beam walking, number of steps [5, 10]: no significant change; beam walking, time taken [5, 10]: no significant change; gait movement on beam runway (steps, time taken, foot slips) ([5]; 50 mg/kg/day oral): improved; grid runway, number of steps [6, 10]: no significant change; gait movement on grid runway (steps, time taken, foot misplacement) ([6]; 50 mg/kg/day oral): improved
2 | O=C([O-])c1ccccc1.[Na+] [NaB, Sodium benzoate] | significant differences in overall movements were not observed | significant improvement | less latency | fewer errors | lower number of negative turns | higher number of positive turns | attenuates | inhibits | inhibition of iNOS | decrease | decrease | decreases | Decrease and/or normalization | Decrease and/or normalization | total lesion volume / size of lesion cavity ([1]; cresyl violet sections, 50 mg/kg/day oral): significantly reduced; structural-tissue integrity of damaged hippocampus ([1]; oral treatment started 24 h after CCI): restored; general locomotor activity / open-field behavior [2, 11]: significant improvement; also recorded: improves; center frequency ([2]; open field, 7 day post-injury): Functional upgrading was clearly visible; distance traveled ([2]; open field, 7 day post-injury): Functional upgrading was clearly visible; rearing behavior ([2]; open field, 7 day post-injury): Functional upgrading was clearly visible; velocity ([2]; open field, 7 day post-injury): Functional upgrading was clearly visible; latency to fall on rotarod [3, 11]: prolonged latencies; also recorded: significantly improved; latency to fall on rotarod ([3]; 21 day post-injury, 50 mg/kg/day): prolonged latencies; also recorded: significantly improved; immobility time in tail suspension test ([4]; 7 days post-injury, 50 mg/kg/day): significantly less immobility time; also recorded: significant improvement; gait movement on beam runway (steps, time taken, foot slips) [5, 12]: significant improvement; also recorded: significant upgrade; also recorded: improved; beam walking performance [5, 13]: did not display significant protection; gait movement on grid runway (steps, time taken, foot misplacement) [6, 12]: significant improvement; also recorded: significant upgrade; also recorded: improvements; grid runway performance [6, 13]: did not display significant protection; hippocampus-dependent behaviors / cognitive performance ([7]; NOR, Barnes maze and T maze, 21 days): enhanced cognitive performance
